Square brackets hold non-standard residues; d marks the D form. Peptide text beside a SMILES is read from it. * marks the point of attachment. Pro(cis-4-Ph) = O=C(O)[C@@H]1C[C@H](c2ccccc2)CN1; Phe(4-CF3) = N[C@@H](Cc1ccc(C(F)(F)F)cc1)C(=O)O; Pro(4R-Bn) = O=C(O)[C@@H]1C[C@@H](Cc2ccccc2)CN1; Trp(5-OH) = N[C@@H](Cc1c[nH]c2ccc(O)cc12)C(=O)O; Phe(4-CN) = N#Cc1ccc(C[C@H](N)C(=O)O)cc1; Phe(4-Cl) = N[C@@H](Cc1ccc(Cl)cc1)C(=O)O; Pro(cis-4-F) = O=C(O)[C@@H]1C[C@H](F)CN1; Tic(7-OH) = O=C(O)[C@@H]1Cc2ccc(O)cc2CN1; 2Nal = N[C@@H](Cc1ccc2ccccc2c1)C(=O)O; Thz(5,5-Me2) = CC1(C)SCN[C@@H]1C(=O)O; cisHyp = O=C(O)[C@@H]1C[C@H](O)CN1; Hyp = O=C(O)[C@@H]1C[C@@H](O)CN1; Tic = O=C(O)[C@@H]1Cc2ccccc2CN1; Benzyl(4-Br) = Brc1ccc(C*)cc1; Pip = O=C(O)[C@@H]1CCCCN1; dPip = O=C(O)[C@H]1CCCCN1; Thz = O=C(O)[C@@H]1CSCN1; Ac5c = NC1(C(=O)O)CCCC1; Dab = NCC[C@H](N)C(=O)O; dAze = O=C(O)[C@H]1CCN1; Aib = CC(C)(N)C(=O)O; Bn = c1ccc(C*)cc1
Columns and labels:
human CCR10 [1] = target: T1, human CCR10 (Homo sapiens, UniProt P46092); assay: Calcium flux assay (CCR10 antagonism, CCL27 as agonist); type: cell-based; settings: CCR10 transfected 300-19 murine pre-B cells; CCL27 30 nM
T1 construct: expressed in transfected cells
T1 sequence (P46092 1-362): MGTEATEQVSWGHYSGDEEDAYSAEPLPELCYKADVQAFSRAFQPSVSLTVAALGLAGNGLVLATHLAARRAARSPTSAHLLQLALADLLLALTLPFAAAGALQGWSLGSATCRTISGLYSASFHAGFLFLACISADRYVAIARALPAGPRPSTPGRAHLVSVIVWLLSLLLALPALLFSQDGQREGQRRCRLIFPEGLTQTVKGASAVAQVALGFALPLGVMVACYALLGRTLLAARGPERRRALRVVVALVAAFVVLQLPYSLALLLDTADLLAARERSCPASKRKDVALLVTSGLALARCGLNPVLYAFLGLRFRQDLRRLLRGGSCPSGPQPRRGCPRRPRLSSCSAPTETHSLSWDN
Method: (§1) Lyophilized peptides were weighed on a Microbalance (Mettler MX5) and dissolved in aqueous 90% DMSO to a final concentration of 10 mM unless otherwise stated. Stock solutions were kept at +4° C., and protected from light.
(§2) Peptides were assayed for CCR10 antagonism in a calcium flux assay and in a chemotaxis assay using a mouse pre-B cell line 300-19 stably transfected with human CCR10, and with human CCL27 as agonist.
The calcium flux release was assessed using CCR10 transfected 300-19 murine pre-B cells. These cells were labeled as a batch with Calcium4 Reagent (Molecular Devices, Sunnyvale, Calif.) in HBSS buffer for 60 min.
After dispensing 8×10^4 cells in each well of a 384-well black plate, a concentrated solution of the β-hairpin peptidomimetics of this invention in HBSS+0.1% BSA+0.1% DMSO (final concentration) was added to the cells. The entire plate was centrifuged and placed in a Flexstation II (Molecular Devices) automated plate reader. After reading a 20 s baseline, the Flexstation dispensed CCL27 (RnD systems) at a final concentration of 30 nM in HBSS+0.1% BSA onto the cells and calcium flux was measured for an additional 70 s.
Alternatively a FIipR384 (Molecular Devices) was used for read out of the 384-well plates. In this case about 8×10^4 cells were placed in each well, centrifuged, placed in the FlipR and after 5 s of baseline reading, the β-hairpin peptidomimetics in HBSS+0.1% BSA+0.1% DMSO (final concentration) were added. After an incubation time of 5 min, the CCL27 solution was added to the mixture and the calcium flux was measured for 200 s.
The maximum signal was determined from control wells without inhibitor. Percentage of inhibition was calculated from a range of compound concentrations, which were subsequently used to calculate IC50 values (Softmax Pro, Molecular Devices). All steps were carried out at room temperature.

human CCR10 [2] = target: T1, human CCR10; assay: Chemotaxis assay (CCR10-transfected 300-19 cells, CCL27 gradient); type: cell-based; settings: CCR10-transfected 300-19 murine pre-B cells; 30 nM CCL27 gradient
Method: as §1, §2
The chemotactic response of CCR10-transfected 300-19 murine pre-B cells to a gradient of CCL27 (CTACK) was measured using disposable Transwell® assay plates from Costar (5 μm pore size) according to the protocol of the manufacturer. Briefly, cells were grown under sterile conditions at 37° C. with 5% CO2 in flasks containing RPMI+5% FCS, glutamine, penicillin/streptomycin (all media components were from Life Technologies) and the appropriate selection antibiotics (Puromycin, G418 or Tetracycline). For the assay, cells were pelleted by centrifugation, washed once in Dulbecco's phosphate buffered saline (DPBS), and resuspended to give 1×10^6 cells/ml in RPMI+0.5% bovine serum albumin (BSA). 100 μl of cell suspension was applied to the top of the assay filter. The β-hairpin peptidomimetics, diluted in the same assay medium, were added to both top and bottom chambers. The cells were allowed to migrate for 4-6 hours at 37° C. into the bottom chamber of the assay plate containing 30 nM of CCL27 (RnD systems). Migrated cells were counted using a FACS cytometer (Cytomics FC500, Beckman Coulter). Data normalization was performed using the number of any cells that had migrated in the absence of the β-hairpin peptidomimetic and the number of cells that have randomly migrated in absence of CCL27 [these values were taken as 100% (no inhibitory activity) and 0%, respectively]. From a range of compound concentrations IC50 were determined using Prism5 (GraphPad software).

SMILES	IC50 (human CCR10 [1]) [nM]	IC50 (human CCR10 [2]) [nM]
CC1(C)NC(=O)[C@H](Cc2c[nH]c3ccccc23)NC(=O)[C@@H]2Cc3ccccc3CN2C(=O)[C@H]2CCCN2C(=O)[C@H](CCCNC(=N)N)NC(=O)[C@H](Cc2c[nH]c3ccccc23)NC1=O [Ex. 1, cyclo(-Trp-Aib-Trp-Arg-^DPro-Tic-)] (cyclo([Aib]WR[dP][Tic]W))	226 ± 187	94
CC1(C)NC(=O)[C@H](Cc2c[nH]c3ccccc23)NC(=O)[C@@H]2Cc3ccccc3CN2C(=O)[C@H]2CCCN2C(=O)[C@H](CCN)NC(=O)[C@H](Cc2c[nH]c3ccccc23)NC1=O [Ex. 2, cyclo(-Trp-Aib-Trp-Dab-^DPro-Tic-)] (cyclo([Aib]W[Dab][dP][Tic]W))	200 ± 56.5	21.6
N=C(N)NCCC[C@@H]1NC(=O)[C@H](Cc2c[nH]c3ccccc23)NC(=O)C2(CCCC2)NC(=O)[C@H](Cc2c[nH]c3ccccc23)NC(=O)[C@@H]2Cc3ccc(O)cc3CN2C(=O)[C@H]2CCCN2C1=O [Ex. 3, cyclo(-Trp-Cyp-Trp-Arg-^DPro-Tic(7OH)—)] (cyclo([Ac5c]WR[dP][Tic(7-OH)]W))	78.5 ± 38.6	
NCC[C@@H]1NC(=O)[C@H](Cc2c[nH]c3ccccc23)NC(=O)C2(CCCC2)NC(=O)[C@H](Cc2c[nH]c3ccccc23)NC(=O)[C@@H]2C[C@H](F)CN2C(=O)[C@H]2CCCN2C1=O [Ex. 4, cyclo(-Trp-Cyp-Trp-Dab-^DPro-Pro((4S)F)—)] (cyclo([Ac5c]W[Dab][dP][Pro(cis-4-F)]W))	860 ± 382	42
N=C(N)NCCC[C@@H]1NC(=O)[C@H](Cc2c[nH]c3ccccc23)NC(=O)C2(CCCC2)NC(=O)[C@H](Cc2c[nH]c3ccccc23)NC(=O)[C@@H]2CSCN2C(=O)[C@H]2CCCN2C1=O [Ex. 5, cyclo(-Trp-Cyp-Trp-Arg-DPro-Thz-)] (cyclo([Ac5c]WR[dP][Thz]W))	70.6 ± 20.1	
NC(=O)CC[C@@H]1NC(=O)[C@H](Cc2c[nH]c3ccccc23)NC(=O)C2(CCCC2)NC(=O)[C@H](Cc2c[nH]c3ccc(O)cc23)NC(=O)[C@@H]2CSCN2C(=O)[C@H]2CCCN2C1=O [Ex. 7, cyclo(-Trp(5OH)-Cyp-Trp-Gln-^DPro-Thz-)] (cyclo([Trp(5-OH)][Ac5c]WQ[dP][Thz]))	144 ± 84.1	3.1
N=C(N)NCCC[C@@H]1NC(=O)[C@H](Cc2c[nH]c3ccccc23)NC(=O)C2(CCCC2)NC(=O)[C@H](Cc2c[nH]c3ccc(O)cc23)NC(=O)[C@@H]2Cc3ccccc3CN2C(=O)[C@H]2CCCN2C1=O [Ex. 8, cyclo(-Trp(5OH)-Cyp-Trp-Arg-^DPro-Tic-)] (cyclo([Ac5c]WR[dP][Tic][Trp(5-OH)]))	52.5 ± 3.5	
NC(=O)CC[C@@H]1NC(=O)[C@H](Cc2c[nH]c3ccccc23)NC(=O)C2(CCCC2)NC(=O)[C@H](Cc2ccc3ccccc3c2)NC(=O)[C@@H]2Cc3ccccc3CN2C(=O)[C@H]2CCCN2C1=O [Ex. 9, cyclo(-2NaI-Cyp-Trp-Gln-^DPro-Tic-)] (cyclo([2Nal][Ac5c]WQ[dP][Tic]))	9.2 ± 3.6	2
NCC[C@@H]1NC(=O)[C@H](Cc2c[nH]c3ccccc23)NC(=O)C2(CCCC2)NC(=O)[C@H](Cc2ccc3ccccc3c2)NC(=O)[C@@H]2CCCCN2C(=O)[C@H]2CCCCN2C1=O [Ex. 10, cyclo(-2NaI-Cyp-Trp-Dab-^DPip-Pip-)] (cyclo([2Nal][Ac5c]W[Dab][dPip][Pip]))	43.2 ± 44.9	9.7
N=C(N)NCCC[C@@H]1NC(=O)[C@H](Cc2c[nH]c3ccccc23)NC(=O)C2(CCCC2)NC(=O)[C@H](Cc2c[nH]c3ccccc23)NC(=O)[C@@H]2Cc3ccccc3CN2C(=O)[C@H]2CCN2C1=O [Ex. 25, cyclo(-Trp-Cyp-Trp-Arg-^DAze-Tic-)] (cyclo([Ac5c]WR[dAze][Tic]W))	70.4 ± 19.2	
NCC[C@@H]1NC(=O)[C@H](Cc2c[nH]c3ccccc23)NC(=O)C2(CCCC2)NC(=O)[C@H](Cc2c[nH]c3ccccc23)NC(=O)[C@@H]2Cc3ccccc3CN2C(=O)[C@H]2CCN2C1=O [Ex. 26, cyclo(-Trp-Cyp-Trp-Dab-^DAze-Tic-)] (cyclo([Ac5c]W[Dab][dAze][Tic]W))	57 ± 26.4	
CC1(C)SCN2C(=O)[C@H]3CCCN3C(=O)[C@H](CCCNC(=N)N)NC(=O)[C@H](Cc3c[nH]c4ccccc34)NC(=O)C3(CCCC3)NC(=O)[C@H](Cc3c[nH]c4ccc(O)cc34)NC(=O)[C@@H]21 [Ex. 29, cyclo(-Trp(5OH)-Cyp-Trp-Arg-^DPro-Thz(5,5Me2)-)] (cyclo([Ac5c]WR[dP][Thz(5,5-Me2)][Trp(5-OH)]))	214 ± 106	109
NCC[C@@H]1NC(=O)[C@H](Cc2c[nH]c3ccccc23)NC(=O)C2(CCCC2)NC(=O)[C@H](Cc2ccc(C(F)(F)F)cc2)NC(=O)[C@@H]2C[C@H](c3ccccc3)CN2C(=O)[C@H]2CCCCN2C1=O [Ex. 37, cyclo(-Phe(4CF3)—Cyp-Trp-Dab-^DPip-Pro((4R)Ph)-)] (cyclo([Ac5c]W[Dab][dPip][Pro(cis-4-Ph)][Phe(4-CF3)]))	14.8 ± 12	22
NCC[C@@H]1NC(=O)[C@H](Cc2c[nH]c3ccccc23)NC(=O)C2(CCCC2)NC(=O)[C@H](Cc2c[nH]c3ccccc23)NC(=O)[C@@H]2C[C@@H](Cc3ccccc3)CN2C(=O)[C@H]2CCCN2C1=O [Ex. 38, cyclo(-Trp-Cyp-Trp-Dab-^DPro-Pro((4R)Bn)-)] (cyclo([Ac5c]W[Dab][dP][Pro(4R-Bn)]W))	26.1 ± 8.1	2.3
NCC[C@@H]1NC(=O)[C@H](Cc2ccc(Cl)cc2)NC(=O)C2(CCCC2)NC(=O)[C@H](Cc2c[nH]c3ccccc23)NC(=O)[C@@H]2C[C@@H](OCc3ccccc3)CN2C(=O)[C@H]2CCCN2C1=O [Ex. 43, cyclo(-Trp-Cyp-Phe(4Cl)-Dab-^DPro-Hyp(Bn)-)] (cyclo([Ac5c][Phe(4-Cl)][Dab][dP][Hyp](Bn)W))	39.9 ± 34.8	
NCC[C@@H]1NC(=O)[C@H](Cc2c[nH]c3ccccc23)NC(=O)C2(CCCC2)NC(=O)[C@H](Cc2c[nH]c3ccccc23)NC(=O)[C@@H]2C[C@H](OCc3ccccc3)CN2C(=O)[C@H]2CCCN2C1=O [Ex. 51, cyclo(-Trp-Cyp-Trp-Dab-^DPro-(4S)-Hyp(Bn)-)] (cyclo([Ac5c]W[Dab][dP][cisHyp](Bn)W))	260 ± 154	60.1
NCC[C@@H]1NC(=O)[C@H](Cc2c[nH]c3ccccc23)NC(=O)C2(CCCC2)NC(=O)[C@H](Cc2ccc(C(F)(F)F)cc2)NC(=O)[C@@H]2C[C@@H](OCc3ccc(Br)cc3)CN2C(=O)[C@H]2CCCN2C1=O [Ex. 54, cyclo(-Phe(4CF3)-Cyp-Trp-Dab-^DPro-Hyp(4BrBn)-)] (cyclo([Ac5c]W[Dab][dP][Hyp](Benzyl(4-Br))[Phe(4-CF3)]))	22.6 ± 13.6	
NCC[C@@H]1NC(=O)[C@H](Cc2c[nH]c3ccccc23)NC(=O)C2(CCCC2)NC(=O)[C@H](Cc2c[nH]c3ccccc23)NC(=O)[C@@H]2C[C@@H](O)CN2C(=O)[C@H]2CCCN2C1=O [Ex. 103, cyclo(-Trp-Cyp-Trp-Dab-^DPro-Hyp-)] (cyclo([Ac5c]W[Dab][dP][Hyp]W))	190 ± 89.8	
N#Cc1ccc(C[C@@H]2NC(=O)[C@@H]3C[C@@H](OCc4ccccc4)CN3C(=O)[C@H]3CCCN3C(=O)[C@H](CCC(N)=O)NC(=O)[C@H](Cc3c[nH]c4ccccc34)NC(=O)C3(CCCC3)NC2=O)cc1 [compound 47, cyclo(-Phe(4CN)-Cyp-Trp-Gln-^DPro-Hyp(Bn)-)] (cyclo([Ac5c]WQ[dP][Hyp](Bn)[Phe(4-CN)]))	21.7 ± 3.9	
